These results are taken from ChEMBL document CHEMBL6114991, “Design, synthesis, and biological evaluation of novel quinoline carboxylic acid based styryl/alkyne hybrid molecule as a potent anti-adipogenic and antidyslipidemic agent via activation of Wnt/β-catenin pathway” (Eur J Med Chem, 2025).

Series [1] relates to 3T3-L1. The series can be described thus: Anti-adipogenic activity in mouse 3T3-L1 cells assessed as suppression of adipogenesis at 20 uM measured for 72 hrs by oil red O staining based analysis. The format is functional.
The test system of series [2] is 3T3-L1. Put plainly: Anti-adipogenic activity in MDI-induced mouse 3T3-L1 cells assessed as suppression of adipogenesis at 0.3 uM by oil red O staining based analysis. The class given is functional, cell-based. Conditions: time 72.0 hrs.
Series [3] has as its system 3T3-L1. Put plainly: Cytotoxicity against mouse 3T3-L1 cells assessed as cell viability at 30 uM incubated for 48 hrs by MTT assay. The format is toxicity, cell-based. The conditions noted are these: 3t3-l1, 48 h.
Series [4] concerns 3T3-L1. The series can be described thus: Cytotoxicity against mouse 3T3-L1 cells assessed as cell viability upto 100 uM incubated for 48 hrs by MTT assay. Conditions: 3t3-l1, 48 h. The format is toxicity, cell-based.
Series [5] deals with 3T3-L1. The series can be described thus: Anti-adipogenic activity in mouse 3T3-L1 cells assessed as suppression of adipogenesis at 1 uM by oil red O staining based analysis. The class given is functional, cell-based.
For series [6], the system named is 3T3-L1. Put plainly: Anti-adipogenic activity in mouse 3T3-L1 cells assessed as reduction in lipid accumulation at 10 uM. The class given is functional.
The subject of series [7] is 3T3-L1. The series can be described thus: Inhibition of adipogenesis in mouse 3T3-L1 cells assessed as downregulation of PPARgamma expression at 10 uM measured at upto 5 days by immunoblotting analysis. The format is functional, cell-based. Conditions: time <= 5.0 day.
Series [8] deals with 3T3-L1. Put plainly: Induction of cell cycle arrest in mouse 3T3-L1 cells assessed as reduction in percentage of cells at G1 phase at 10 uM incubated for 16 to 24 hrs by flow cytometry analysis. The format is functional, cell-based. The conditions noted are these: time 16-24 hrs.
In series [9] the test system is 3T3-L1. The series can be described thus: Induction of cell cycle arrest in mouse 3T3-L1 cells assessed as reduction in number of cells at G1 phase at 10 uM incubated for 16 to 24 hrs by flow cytometry analysis. The format is functional, cell-based. The conditions noted are these: time 16-24 hrs.
Series [10] concerns 3T3-L1. Put plainly: Anti-adipogenic activity in mouse 3T3-L1 cells assessed as increase in beta-catenin mRNA expression at 10 uM incubated for 16 to 24 hrs. The format is functional, cell-based. Conditions: time 16-24 hrs.
The subject of series [11] is 3T3-L1. The series can be described thus: Anti-adipogenic activity in mouse 3T3-L1 cells assessed as reduction in lipid accumulation at 10 uM in presence of FH535 by microscopic analysis. The format is functional, cell-based.
Series [12] is described as follows: AUC in Golden Syrian hamster at 100 mg/kg, po measured upto 24 hrs by LC-MS/MS analysis. The class given is ADME, organism-based, Mesocricetus auratus. The conditions noted are these: in vivo.
The nature of series [13]: Half life in Golden Syrian hamster at 100 mg/kg, po measured upto 24 hrs by LC-MS/MS analysis. The format is ADME, organism-based, Mesocricetus auratus. The conditions noted are these: in vivo.
Series [14] can be described thus: Clearance in Golden Syrian hamster at 100 mg/kg, po measured upto 24 hrs by LC-MS/MS analysis. The class given is ADME, organism-based, Mesocricetus auratus. The conditions noted are these: in vivo.
Series [15] is described as follows: Toxicity in Golden Syrian hamster assessed as body weight gain at 100 mg/kg, po administered for 7 days. The format is organism-based, Mesocricetus auratus. The conditions noted are these: in vivo, 168 h, time 7 day.

Structures are written as SMILES. Calls of active or inactive are those of the source. No cut-off for these calls is given here.

For `Cc1ccc(/C=C/c2ccc(-c3cc(C(=O)O)c4cc(F)ccc4n3)cc2)cc1`, the Activity in the series with 3T3-L1 [1] was 70%; in the series with 3T3-L1 [3], “Toxic”; with 3T3-L1 [4], “Toxic”; in series [15], “Non-toxic”. Moreover, the outcome with 3T3-L1 [2], in the series on 3T3-L1 [5], with 3T3-L1 [8], with 3T3-L1 [9], in the series with 3T3-L1 [10] and in the series with 3T3-L1 [11] was Active. In addition, in the series with 3T3-L1 [6], the inhibition at 10 µM was approximately 50%. The inhibition entry in the series with 3T3-L1 [7] is “Active”. In addition, the area under the curve (AUC) at 24 h in series [12] stood at 35700 ng·h/mL. For the same molecule, the half-life in series [13] is 3.64 h. Also, the apparent clearance CL/F in series [14] is 46.8 mL/min/kg.
